# Structures can show the parent of a compound that is named as a salt.
# Target: T1, human IKK-β (Homo sapiens, UniProt O14920)
# T1 construct: A cDNA fragment encoding human IKK-β open reading frame was generated by PCR; His tag (from pcDNA3.1/His C); made in house; host or cells: Sf21 insect cells (baculovirus); substrate made in E. coli
# T1 sequence (O14920 1-756): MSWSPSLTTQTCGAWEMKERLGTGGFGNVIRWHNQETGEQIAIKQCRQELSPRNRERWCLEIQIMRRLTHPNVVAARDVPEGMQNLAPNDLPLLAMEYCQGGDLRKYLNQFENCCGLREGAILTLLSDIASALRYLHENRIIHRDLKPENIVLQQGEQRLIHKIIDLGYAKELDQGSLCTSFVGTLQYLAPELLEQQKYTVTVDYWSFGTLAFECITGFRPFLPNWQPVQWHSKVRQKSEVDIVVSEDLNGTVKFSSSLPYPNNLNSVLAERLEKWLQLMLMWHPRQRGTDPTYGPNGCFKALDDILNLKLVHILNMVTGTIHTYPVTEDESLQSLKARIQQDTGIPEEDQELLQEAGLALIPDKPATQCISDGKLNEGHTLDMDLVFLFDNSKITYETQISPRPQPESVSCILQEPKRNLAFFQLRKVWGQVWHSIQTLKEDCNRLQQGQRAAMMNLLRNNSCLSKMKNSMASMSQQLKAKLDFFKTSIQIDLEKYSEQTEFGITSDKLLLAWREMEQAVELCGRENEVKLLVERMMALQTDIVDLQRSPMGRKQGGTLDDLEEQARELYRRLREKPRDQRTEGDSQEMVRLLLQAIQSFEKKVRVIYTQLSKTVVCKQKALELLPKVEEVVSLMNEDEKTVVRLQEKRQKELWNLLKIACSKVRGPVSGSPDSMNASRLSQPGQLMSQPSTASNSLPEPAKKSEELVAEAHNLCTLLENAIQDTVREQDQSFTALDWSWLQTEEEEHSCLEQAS
# Experiment: IKK-β kinase inhibitory assay
# Assay type: biochemical
# Conditions: compounds as yielded by solid phase synthesis, purity about 40 to 90%, read-out: In vitro activity grade (In vitro IC50)
# Description: [IKK-β Kinase Inhibitory Assay]
# (1) Preparation of IKK-β Kinase Protein.
# • A cDNA fragment encoding human IKK-β open reading frame was generated by PCR with the use of a pair of primers designed from the published sequence (Woronicz J D et al. (1997) Science 278, 866-869). A template was obtained from Quickclone cDNA (Clontech) using Elongase™ Amplification kit (Life Technologies). The DNA fragments generated by PCR were gel-purified and subcloned into pBluescript. The cDNA fragment cloned in pBluescript was inserted into pcDNA3.1/His C KpnI/NotI, and transferred into pVL1393 SmaI/XbaI (Pharmingen) to construct a baculovirus transfer vector. Then the vector, together with the linearized baculovirus (BaculoGold™, Pharmingen) was used to transfect Sf21 cells (Invitrogen, San Diego, Calif.). Generated recombinant baculovirus was cloned and amplified in Sf21 cells, grown in TNM-FH insect cell medium (Life Technologies, Inc.) supplemented with 10% FCS, […] Gentamycin, 0.1% Pluronic F-68 (Life Technologies, Inc.) as suspension culture (200 ml in 1 L Erlenmeyer flask; 27° C.; 130 rpm). Sf21 cells were infected with this amplified virus with a multiplicity of infection of 5 following standard protocols (Crossen R, Gruenwald S (1997) Baculovirus Expression Vector System Instruction Manual, Pharmingen Corporation) and harvested 48 hrs later. The cells were lysed to obtain the produced chimeric protein of IKK-β kinase fused by histidine (His-tagged IKK-beta). (2) The Preparation of Purified GST-IκBα Fusion Proteins • An expression vector containing the nucleotide sequence encoding fusion protein of GST with amino acid residues 1 to 54 of IκBα under the control of an IPTG-inducible promoter was constructed. The expression vector was introduced in E. coli and the transformant was cultured and lysed to obtain a GST-IκBα fusion protein. Then the resulting GST-IκBα fusion protein was purified and biotinated for kinase assay. (3) The Measurement of IKK-β Kinase Activity • The 96-well format kinase assay of IKK-β were performed to test the inhibitory activity of the compounds of the present invention. First, 5 μl of a test compound was put in the presence of 2.5% dimethyl sulfoxide (DMSO) in each well in a U-bottomed 96-well plate (Falcon). For control wells of background (BG) and total phosphorylation (TP), 5 μl of 2.5% DMSO was put. Recombinant IKK-β (final 0.6 μg/ml) and bio-GST-IκBα (1-54) (final 0.2 μM) were diluted in 25 μl of 2×kinase buffer β (40 mM Tris-HCl, pH 7.6, 40 mM MgCl2, 40 mM β-glycerophosphate, 40 mM p-nitrophenylphosphate, 2 mM EDTA, 40 mM creatine phosphate, 2 mM DTT, 2 mM Na3VO4, 0.2 mg/ml BSA and 0.8 mM phenylmethylsulfonyl fluoride) and transferred to the 96-well plate. Bio-GST-IκBα (1-54) in 25 μl of 2×kinase buffer β without IKK-β was transferred to BG wells. Then 20 μl of 12.5 μM ATP, 62.5 μCi/ml [γ-^33P] ATP (Amersham Pharmacia Biotech) was added and the resulting mixture was incubated for 2 hrs at room temperature. The kinase reactions were terminated by the addition of 150 μl of termination buffer (100 mM EDTA, 1 mg/ml BSA, 0.2 mg NaN3). One hundred and fifty μl of the sample were transferred to a streptavidin-coated, white MTP (Steffens Biotechniche Analysen GmbH #08114E14.FWD) to capture the biotinylated substrates. After 1 hr of incubation, non-bound radioactivity was eliminated by washing the wells five times with 300 μl of washing buffer including 0.9% NaCl and 0.1% (w/v) Tween-20 with the use of a MW-96 plate washer (BioTec). The bound radioactivity was determined after the addition of 170 μl MicroScint-PS scintillation cocktail (Packard) using a TopCount scintillation counter. [Syk Tyrosine Kinase Inhibitory Assay for Selectivity] (1) Preparation of Syk Protein • A cDNA fragment encoding human Syk openreading frame was cloned from total RNA of human Burkitt's lymphoma B cell lines, Raji (American Type Culture Collection), with the use of RT-PCR method.
row,Compound,IC50 [µM]
1,N#Cc1c(C2CNc3ccccc3C2)cc(-c2ccccc2O)nc1N (centres unmarked) [Example 1-16],> 10
2,N#Cc1c([C@@H]2Cc3ccccc3CN2)cc(-c2ccccc2O)nc1N [Example 1-27],2 to 10
3,CCCCOc1cccc(O)c1-c1cc(C2CCNCC2)c(C#N)c(N)n1 [Example 2-72],< 0.5
4,"N#Cc1c(C2CCCNC2)cc(-c2ccccc2O)nc1N1CCNCC1 (centres unmarked) [Example 4-5, 6-(2-hydroxyphenyl)-2-(1-piperazinyl)-4-(3-piperidinyl)nicotinonitrile dihydrochloride]",> 10

# More lines, now with the values ahead:
row,IC50 [µM],Compound
1,< 0.5,"Cn1c(=O)[nH]c2nc(-c3c(O)cccc3OCC3CC3)cc(C3CCCNC3)c2c1=O (centres unmarked) [Example 10-2, 7-(2-Cyclopropylmethoxy-6-hydroxy-phenyl)-3-methyl-5-piperidin-3-yl-1H-pyrido[2,3-d]pyrimidine-2,4-dione]"
2,> 10,N#Cc1c(N2CCCCC2)cc(-c2ccccc2O)nc1N [Example 34-05]
3,< 0.5,N#Cc1c(NCCN)cc(-c2c(O)cccc2OCC2CC2)nc1N [Example 34-14]

# Test system: A549 human lung epithelium cell line
# Experiment: RANTES production in response to TNF-α from A549 cells
# Assay type: cell-based
# Conditions: Homo sapiens, A549, A549 cells, 100 ng/ml TNF-α, read-out: Cellular activity grade (A549) (Cellular IC50)
# Procedure: [The Measurement of RANTES Production in Response to TNF-α from A549 Cells]
# (1) Preparation of A549 Cells
# • The A549 human lung epithelium cell line (ATCC […]) was maintained in Dulbecco's modified Eagle's medium (D-MEM, Nikken Biomedical Institute) supplemented with 10% FCS (Gibco), 100 U/ml penicillin, 100 μg/ml streptomycin, and 2 mM glutamine (culture medium). Forty thousand (4×10^4) cells (80 μl/well) were seeded in each well of 96 well flat-bottom tissue culture plate (Falcon #3072). The plate was allowed to stand for 2 hrs, thus the cells were adhered to the bottom of each well. To the each well was added 10 μl vehicle (1% DMSO), serial dilutions of test compounds in 1% DMSO, or 5 nM Dexamethasone in 1% DMSO as a reference. The mixture (90 μl/well) was incubated for 1 hr at 37° C. After 1 hr, 1 μg/ml TNF-α (10 μl) in culture medium was added to the mixture to obtain 100 μl of reaction mixture. The reaction mixture was cultured for 24 hrs to stimulate the cells with 100 ng/ml TNF-α. Cells with vehicle without TNF-α stimulation were also prepared. (2) Measurement of RANTES Production • Then the concentration of RANTES released from the cells in the supernatants of each well was determined using a quantitative sandwich enzyme immunoassay technique. First, 2 μg/ml mouse anti-huRANTES mAb (R&D Systems, #mAb678) in PBS buffer (pH 7.4, 100 μl) was put in each well of 96-well NUNC fluoro plate (Nalge Nunc, New York USA) (Final 200 ng/well) and the plate was allowed to stand for overnight at 4° C. to be coated by the antibody. Each well of the plate was then washed with 350 μl wash buffer (0.05% Tween-20, 0.85% NaCl, and 25 mM Tris/HCl pH7.4) for three times. Blocking buffer containing 1% BSA (Sigma 99% pure, 100 g), 5% sucrose (Nacalai tesque, 99% pure, 500 g), and 0.02% azide (Nacalai tesque, 100%, 500 g) were added (200 μl) to each well and then the plate was allowed to stand for 4 hours to stabilize the coated antibody. Next, 50 μl supernatants of cell culture prepared in (1) above were put in each well of the 96-well NUNC fluoro plate with coated antibody. Recombinant Human RANTES (Pepro Tech, Inc. #300-06) was used as the standard for the determination of RANTES production (linear range between 1 and 10 ng/ml). Eu-labelled mouse anti-huRANES mAb (60 ng/ml: R&D Systems, #mAb278) in PBS supplemented by 1% BSA and 0.05% Tween 20 was added (50 μl) to each well. The reaction mixtures were incubated at room temperature for 4 hrs. After washing with wash buffer (0.05% Tween-20, 0.85% NaCl, and 25 mM Tris/HCl pH7.4, 350 μl/well) for 5 times with the use of a Sera Washer (Bio-Tech, #MW-96R), the enhancement solution (DELFIA, #1244-405, 100 μl/well) was added to each well. The plate was incubated for 10 minutes at room temperature with moderate shaking. Fluorescent intensity was measured using a DELFIA fluorimeter (Wallac). Excitation was performed at 340 nm and emission was measured at 615 nm. [The Measurement of TNF-α Production in Response to LPS from Peripheral Blood Mononuclear Cells (PBMC)] (1) Preparation of PBMC • Human PBMC were prepared by first obtaining blood from healthy donors and isolating the cells from the blood. The isolation was done by Ficoll gradient-centrifugation method using Ficoll Pacque (Pharmacia #17-1440-02). Within three hours from donation, the isolated PBMC was used. After three times washing with PBS, PBMC were resuspended with RPMI 1640 (Nikken BioMedical Institute) supplemented with 10% FCS (Gibco), 100 U/ml penicillin, 100 μg/ml streptomycin, and 2 mM glutamine (culture medium). The cells (1×10^5 in 150 μL/well) were seeded in each well of 96 well flat-bottom tissue culture plate (Falcon #3072). To the each well was added 20 μl vehicle (1% DMSO), serial dilutions of test compounds in 1% DMSO, or 250 nM Dexamethasone in 1% DMSO as a reference. The mixture (170 μl/well) was incubated for 1 hr at 37° C. After 1 hr, 20 ng/ml LPS (30 μl) in culture medium was added to the mixture to obtain 200 μl of reaction mixture. […]
row,IC50 [µM],Compound
1,< 1,"O=C1Nc2nc(-c3c(O)cccc3OCC3CC3)cc(C3CCCNC3)c2CO1 (centres unmarked) [Example 18-1, 7-[2-(cyclopropylmethoxy)-6-hydroxyphenyl]-5-(3-piperidinyl)-1,4-dihydro-2H-pyrido[2,3-d][1,3]oxazin-2-one hydrochloride]"

# From patent US6984649B1, “Pyridine derivatives” (Bayer Aktiengesellschaft, priority 2000, dated 2006)
